# Target: unphosphorylated-BTK kinase domain (UP-BTK), GST-tagged human BTK (389-659aa) (Homo sapiens (Human), UniProt Q06187)
# Test: BTK Kinase Lanthascreen Binding Assay
# Settings: compound, 50 nM Tracer 236, 2 nM anti-GST antibody, 60 minutes; pIC50 = negative log of the IC50 in molar
# Procedure: BTK Kinase Lanthascreen Binding Assay:
# A BTK kinase lanthascreen binding assay monitors compound binding to unphosphorylated-BTK kinase domain (UP-BTK), by competing with a fluorescent labeled tracer. […] Data were analyzed using Xlfit™ version 5.3 from ID Business Solutions (Guildford), Microsoft Excel add-in. pIC50 refers to the negative log of the IC50 in molar.
# Chain of unphosphorylated-BTK kinase domain (UP-BTK), GST-tagged human BTK (389-659aa) (Q06187 389-659): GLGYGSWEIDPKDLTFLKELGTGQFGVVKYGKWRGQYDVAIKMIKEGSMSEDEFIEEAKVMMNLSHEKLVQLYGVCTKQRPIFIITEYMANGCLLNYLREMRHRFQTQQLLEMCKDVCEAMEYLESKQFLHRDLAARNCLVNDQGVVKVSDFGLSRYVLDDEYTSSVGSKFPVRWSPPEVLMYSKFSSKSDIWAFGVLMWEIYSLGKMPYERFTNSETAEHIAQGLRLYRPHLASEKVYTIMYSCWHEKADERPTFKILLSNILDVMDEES
row,BTK_I_binding pIC50,SMILES
1,8.12,"C=CC(=O)N[C@H]1CCCC[C@H]1NC(=O)c1sc2nccc3c2c1NC(=O)N3c1ccc(Oc2ccccc2)cc1 [Example 118, N-((1R,2S)-2-Acrylamidocyclohexyl)-4-oxo-5-(4-phenoxyphenyl)-4,5-dihydro-3H-1-thia-3,5,8-triazaacenaphthylene-2-carboxamide]"
2,7.61,"C=CC(=O)N[C@H]1CC[C@@H](NC(=O)c2sc3nccc4c3c2NC(=O)N4c2ccc(Oc3ccccc3)cc2)CC1 [Example 119, N-((1S,4S)-4-Acrylamidocyclohexyl)-4-oxo-5-(4-phenoxyphenyl)-4,5-dihydro-3H-1-thia-3,5,8-triazaacenaphthylene-2-carboxamide]"
3,6.57,"C=CC(=O)N[C@H]1CC[C@@H](NC(=O)c2sc3nccc4c3c2NC(=O)N4c2ccc(Oc3ccccc3)cc2)C1 [Example 121, N-((1R,3S)-3-Acrylamidocyclopentyl)-4-oxo-5-(4-phenoxyphenyl)-4,5-dihydro-3H-1-thia-3,5,8-triazaacenaphthylene-2-carboxamide]"
4,6.71,"C=CC(=O)N[C@@H]1CCCC[C@@H]1NC(=O)c1sc2nccc3c2c1NC(=O)N3c1ccc(Oc2ccccc2)cc1 [Example 124, N-((1S,2R)-2-Acrylamidocyclohexyl)-4-oxo-5-(4-phenoxyphenyl)-4,5-dihydro-3H-1-thia-3,5,8-triazaacenaphthylene-2-carboxamide]"
5,7.13,"N[C@H]1CCCC[C@H]1NC(=O)c1sc2nccc3c2c1NC(=O)N3c1ccc(Oc2ccccc2)cc1 [Example 126, N-((1R,2S)-2-Aminocyclohexyl)-4-oxo-5-(4-phenoxyphenyl)-4,5-dihydro-3H-1-thia-3,5,8-triazaacenaphthylene-2-carboxamide]"
6,6.56,"C=CC(=O)N[C@@H]1CCC[C@@H]1NC(=O)c1sc2nccc3c2c1NC(=O)N3c1ccc(Oc2ccccc2)cc1 [Example 127, N-((1S,2R)-2-Acrylamidocyclopentyl)-4-oxo-5-(4-phenoxyphenyl)-4,5-dihydro-3H-1-thia-3,5,8-triazaacenaphthylene-2-carboxamide]"
7,7.49,"N[C@H]1CCCC[C@H]1NC(=O)c1sc2nccc3c2c1NC(=O)N3c1ccc(Oc2ccccc2)c(Cl)c1 [Example 137, N-((1R,2S)-2-Aminocyclohexyl)-5-(3-chloro-4-phenoxyphenyl)-4-oxo-4,5-dihydro-3H-1-thia-3,5,8-triazaacenaphthylene-2-carboxamide]"
8,7.23,"O=C(N[C@@H]1CCC[C@@H](O)C1)c1sc2nccc3c2c1NC(=O)N3c1ccc(Oc2ccccc2)cc1 [Example 139, N-((1R,3R)-3-Hydroxycyclohexyl)-4-oxo-5-(4-phenoxyphenyl)-4,5-dihydro-3H-1-thia-3,5,8-triazaacenaphthylene-2-carboxamide]"
9,7.15,"O=C(N[C@@H]1CCC[C@@H]1O)c1sc2nccc3c2c1NC(=O)N3c1ccc(Oc2ccccc2)cc1 [Example 140, N-((1R,2S)-2-Hydroxycyclopentyl)-4-oxo-5-(4-phenoxyphenyl)-4,5-dihydro-3H-1-thia-3,5,8-triazaacenaphthylene-2-carboxamide]"
10,7.01,"N[C@H]1CCCC[C@H]1NC(=O)c1sc2nccc3c2c1NC(=O)N3c1cccc(-c2ccccc2)c1 [Example 141, 5-([1,1′-Biphenyl]-3-yl)-N-((1R,2S)-2-aminocyclohexyl)-4-oxo-4,5-dihydro-3H-1-thia-3,5,8-triazaacenaphthylene-2-carboxamide]"
11,6.87,"O=C(N[C@@H]1CCC[C@H](O)C1)c1sc2nccc3c2c1NC(=O)N3c1ccc(Oc2ccccc2)cc1 [Example 142, N-((1R,3S)-3-Hydroxycyclohexyl)-4-oxo-5-(4-phenoxyphenyl)-4,5-dihydro-3H-1-thia-3,5,8-triazaacenaphthylene-2-carboxamide]"
12,6.75,"O=C(N[C@H]1CCC[C@H](O)C1)c1sc2nccc3c2c1NC(=O)N3c1ccc(Oc2ccccc2)cc1 [Example 143, N-((1S,3S)-3-Hydroxycyclohexyl)-4-oxo-5-(4-phenoxyphenyl)-4,5-dihydro-3H-1-thia-3,5,8-triazaacenaphthylene-2-carboxamide]"
13,6.69,"O=C(N[C@@H]1CCC[C@H]1O)c1sc2nccc3c2c1NC(=O)N3c1cccc(-c2ccccc2)c1 [Example 144, 5-([1,1′-Biphenyl]-3-yl)-N-((1R,2R)-2-hydroxycyclopentyl)-4-oxo-4,5-dihydro-3H-1-thia-3,5,8-triazaacenaphthylene-2-carboxamide]"
14,6.69,"N[C@H]1CC[C@@H](NC(=O)c2sc3nccc4c3c2NC(=O)N4c2ccc(Oc3ccccc3)cc2)CC1 [Example 145, N-((1S,4S)-4-Aminocyclohexyl)-4-oxo-5-(4-phenoxyphenyl)-4,5-dihydro-3H-1-thia-3,5,8-triazaacenaphthylene-2-carboxamide]"
15,6.66,"N[C@H]1CC[C@H](NC(=O)c2sc3nccc4c3c2NC(=O)N4c2ccc(Oc3ccccc3)cc2)CC1 [Example 146, N-(trans-(1R,4R)-4-Aminocyclohexyl)-4-oxo-5-(4-phenoxyphenyl)-4,5-dihydro-3H-1-thia-3,5,8-triazaacenaphthylene-2-carboxamide]"
16,6.47,"N[C@H]1CCC[C@@H]1NC(=O)c1sc2nccc3c2c1NC(=O)N3c1ccc(Oc2ccccc2)cc1 [Example 148, N-((1S,2S)-2-Aminocyclopentyl)-4-oxo-5-(4-phenoxyphenyl)-4,5-dihydro-3H-1-thia-3,5,8-triazaacenaphthylene-2-carboxamide]"
17,6.45,"N[C@@H]1CCCC[C@H]1NC(=O)c1sc2nccc3c2c1NC(=O)N3c1ccc(Oc2ccccc2)cc1 [Example 149, N-((1R,2R)-2-Aminocyclohexyl)-4-oxo-5-(4-phenoxyphenyl)-4,5-dihydro-3H-1-thia-3,5,8-triazaacenaphthylene-2-carboxamide]"
18,6.40,"CC(C)(C)OC(=O)N[C@@H]1CC[C@H](NC(=O)c2sc3nccc4c3c2NC(=O)N4c2ccc(Oc3ccccc3)cc2)C1 [Example 150, tert-Butyl ((1R,3S)-3-(4-oxo-5-(4-phenoxyphenyl)-4,5-dihydro-3H-1-thia-3,5,8-triazaacenaphthylene-2-carboxamido)cyclopentyl)carbamate]"
19,6.33,"CC(C)(C)OC(=O)N[C@H]1CC[C@H](NC(=O)c2sc3nccc4c3c2NC(=O)N4c2ccc(Oc3ccccc3)cc2)CC1 [Example 151, tert-Butyl trans-((1R,4R)-4-(4-oxo-5-(4-phenoxyphenyl)-4,5-dihydro-3H-1-thia-3,5,8-triazaacenaphthylene-2-carboxamido)cyclohexyl)carbamate]"
20,6.25,"O=C(NCC1(O)CCCCC1)c1sc2nccc3c2c1NC(=O)N3c1ccc(Oc2ccccc2)cc1 [Example 152, N-((1-Hydroxycyclohexyl)methyl)-4-oxo-5-(4-phenoxyphenyl)-4,5-dihydro-3H-1-thia-3,5,8-triazaacenaphthylene-2-carboxamide]"
21,6.44,"Cc1cc(OC(C)C)ccc1N1C(=O)Nc2c(C(=O)N[C@H]3CC[C@@H](NC(=O)/C=C/CN(C)C)C3)sc3nccc1c23 [Example 153, N-((1S,3R)-3-((E)-4-(Dimethylamino)but-2-enamido)cyclopentyl)-5-(4-isopropoxy-2-methylphenyl)-4-oxo-4,5-dihydro-3H-1-thia-3,5,8-triazaacenaphthylene-2-carboxamide]"
22,6.19,"O=C(N[C@H]1CCC[C@@H](O)C1)c1sc2nccc3c2c1NC(=O)N3c1ccc(Oc2ccccc2)cc1 [Example 157, N-((1S,3R)-3-Hydroxycyclohexyl)-4-oxo-5-(4-phenoxyphenyl)-4,5-dihydro-3H-1-thia-3,5,8-triazaacenaphthylene-2-carboxamide]"
23,6.11,"Cc1cc(OC(C)C)ccc1N1C(=O)Nc2c(C(=O)N[C@H]3CC[C@@H](NC(=O)CN(C)C)C3)sc3nccc1c23 [Example 158, N-((1S,3R)-3-(2-(Dimethylamino)acetamido)cyclopentyl)-5-(4-isopropoxy-2-methylphenyl)-4-oxo-4,5-dihydro-3H-1-thia-3,5,8-triazaacenaphthylene-2-carboxamide]"
24,5.43,"CC(C)(C)OC(=O)N[C@H]1CC[C@@H](NC(=O)c2sc3nccc4c3c2NC(=O)N4c2ccc(Oc3ccccc3)cc2)CC1 [Example 163, tert-Butyl ((1S,4S)-4-(4-oxo-5-(4-phenoxyphenyl)-4,5-dihydro-3H-1-thia-3,5,8-triazaacenaphthylene-2-carboxamido)cyclohexyl)carbamate]"

# Same assay, conditions: read-out: BTK_I_binding pIC50 (converted)
row,IC50 [nM],SMILES
1,> 1000,"CCC(=O)N[C@@H]1CCC[C@@H]1NC(=O)c1sc2nccc3c2c1NC(=O)N3c1ccnc(-c2ccccc2)c1 [Example 159, 4-Oxo-5-(2-phenylpyridin-4-yl)-N-((1S,2R)-2-propionamidocyclopentyl)-4,5-dihydro-3H-1-thia-3,5,8-triazaacenaphthylene-2-carboxamide]"
2,> 1000,"Cc1cc(OC(C)C)ccc1N1C(=O)Nc2c(C(=O)N[C@@H]3CCCC[C@@H]3N)sc3nccc1c23 [Example 160, N-((1R,2S)-2-Aminocyclohexyl)-5-(4-isopropoxy-2-methylphenyl)-4-oxo-4,5-dihydro-3H-1-thia-3,5,8-triazaacenaphthylene-2-carboxamide]"
3,> 1000,"CNCC(=O)N[C@@H]1CC[C@H](NC(=O)c2sc3nccc4c3c2NC(=O)N4c2ccc(OC(C)C)cc2C)C1 [Example 161, 5-(4-Isopropoxy-2-methylphenyl)-N-((1S,3R)-3-(2-(methylamino)acetamido)cyclopentyl)-4-oxo-4,5-dihydro-3H-1-thia-3,5,8-triazaacenaphthylene-2-carboxamide]"

# From patent publication US10934310B2, “Inhibitors of Bruton's tyrosine kinase and method of their use” (JANSSEN PHARMACEUTICA NV, priority 2015, dated 2021)
